This assay concerns the target T1, PE-labeled human PD-L1-Ig binding to Jurkat cell line over-expressing human PD-1 (Jurkat-PD-1) (Homo sapiens, UniProt Q15116).
T1 construct: expressed in transfected cells; host or cells: Jurkat
The experiment in a line: Jurkat-PD-1 Cell Binding High-Content Screening Assay (CBA): Method 1. As to conditions: Jurkat-hPD-1 cells, PE-labeled PD-L1-Ig 20 nM final; read-out: Jurkat HPDL1 PD1 IC50 (uM) (Method 1).

Bridge positions count the residues as written; N and C are the ends. Square brackets hold non-standard residues; d marks the D form. Peptide text beside a SMILES is read from it. * marks the point of attachment. ξ: configuration not given here. Phe(4-COOH) = N[C@@H](Cc1ccc(C(=O)O)cc1)C(=O)O; Bip = N[C@@H](Cc1ccc(-c2ccccc2)cc1)C(=O)O; Phe(3-OMe) = COc1cccc(C[C@H](N)C(=O)O)c1; Phe(4-CN) = N#Cc1ccc(C[C@H](N)C(=O)O)cc1; Phe(3-Me) = Cc1cccc(C[C@H](N)C(=O)O)c1; Val(3-OH) = CC(C)(O)[C@H](N)C(=O)O; 2Thi = N[C@@H](Cc1cccs1)C(=O)O; Cha = N[C@@H](CC1CCCCC1)C(=O)O; Cit = NC(=O)NCCC[C@H](N)C(=O)O; Ile(3ξ) = CCC(C)[C@H](N)C(=O)O; NMeL = CN[C@@H](CC(C)C)C(=O)O; Thr(3ξ) = CC(O)[C@H](N)C(=O)O; Carboxymethyl = O=C(O)C*; NMeA = CN[C@@H](C)C(=O)O; Orn = NCCC[C@H](N)C(=O)O; Dab = NCC[C@H](N)C(=O)O; Dap = NC[C@H](N)C(=O)O

T1 sequence (Q15116 25-288): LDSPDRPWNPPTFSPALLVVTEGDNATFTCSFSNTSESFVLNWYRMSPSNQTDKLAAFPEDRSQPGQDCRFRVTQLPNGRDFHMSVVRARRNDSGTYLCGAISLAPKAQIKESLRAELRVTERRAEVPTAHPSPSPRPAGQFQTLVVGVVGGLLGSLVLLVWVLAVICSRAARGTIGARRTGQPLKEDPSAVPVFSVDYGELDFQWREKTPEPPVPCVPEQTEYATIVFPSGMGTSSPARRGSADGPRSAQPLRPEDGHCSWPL

For the compound `Cc1cccc(C[C@@H]2NC(=O)[C@H](CC(=O)O)NC(=O)[C@H](Cc3ccc(O)cc3)NC(=O)[C@H](CC(N)=O)NC(=O)CSC[C@@H](C(=O)N[C@@H](C)C(N)=O)NC(=O)[C@H]([C@@H](C)O)NC(=O)[C@H](C(C)C)NC(=O)[C@H](CC(C)C)NC(=O)[C@H](CCCNC(=N)N)NC(=O)[C@@H](CC(C)C)NC(=O)[C@H](C)N(C)C(=O)[C@H](C(C)C)NC(=O)[C@H](Cc3ccc(-c4ccccc4)cc3)NC(=O)[C@H](C(C)C)NC2=O)c1` [Compound 1273] ({CH2CO}-NYD[Phe(3-Me)]V[Bip]V[NMeA][dL]RLVTCA-NH2; thioether N-14), the IC50 was found to be 0.01 µM.

Consider `CC(C)C[C@@H]1NC(=O)[C@H](CCCN)NC(=O)[C@@H](CC(C)C)NC(=O)[C@H](C)N(C)C(=O)[C@H](CCCNC(=N)N)NC(=O)[C@H](Cc2ccc(-c3ccccc3)cc2)NC(=O)[C@H](C(C)C)NC(=O)[C@H](Cc2c[nH]c3ccccc23)NC(=O)[C@H](CC(=O)O)NC(=O)[C@H](Cc2ccc(C(=O)O)cc2)NC(=O)[C@H](CC(N)=O)NC(=O)CSC[C@@H](C(=O)N[C@@H](C)C(N)=O)NC(=O)[C@H]([C@@H](C)O)NC(=O)[C@H](C(C)C)NC1=O` [Compound 1139] ({CH2CO}-N[Phe(4-COOH)]DWV[Bip]R[NMeA][dL][Orn]LVTCA-NH2; thioether N-14), for which the IC50 was determined as 0.06 µM. As for `Cc1cccc(C[C@@H]2NC(=O)[C@H](CC(=O)O)NC(=O)[C@H](Cc3ccc(OCC(=O)O)cc3)NC(=O)[C@H](Cc3cccs3)NC(=O)CSC[C@@H](C(=O)N[C@@H](CN)C(N)=O)NC(=O)[C@H](C(C)O)NC(=O)[C@H](C(C)(C)O)NC(=O)[C@H](CC3CCCCC3)NC(=O)[C@H](CCN)NC(=O)[C@@H](CC(C)C)NC(=O)[C@H](C)N(C)C(=O)[C@H](CCCNC(N)=O)NC(=O)[C@H](Cc3ccc(-c4ccccc4)cc3)NC(=O)[C@H](Cc3ccc(OCC(=O)O)cc3)NC2=O)c1` (stereo partly drawn) [Compound 2169] ({CH2CO}-[2Thi]Y(Carboxymethyl)D[Phe(3-Me)]Y(Carboxymethyl)[Bip][Cit][NMeA][dL][Dab][Cha][Val(3-OH)][Thr(3ξ)]C[Dap]-NH2; thioether N-14), the IC50 was determined as 0.01 µM. As to `Cc1cccc(C[C@@H]2NC(=O)[C@H](CC(=O)O)NC(=O)[C@H](Cc3ccc(C(=O)O)cc3)NC(=O)[C@H](Cc3ccc(OCC(=O)O)cc3)NC(=O)CSC[C@@H](C(N)=O)NC(=O)[C@H](CO)NC(=O)[C@H](C(C)C)NC(=O)[C@H](CC3CCCCC3)NC(=O)[C@H](CC(N)=O)NC(=O)[C@@H](CC(C)C)NC(=O)[C@H](C)N(C)C(=O)[C@H](C(C)C)NC(=O)[C@H](Cc3ccc(-c4ccccc4)cc3)NC(=O)[C@H](CC(C)C)NC2=O)c1` [Compound 1681] ({CH2CO}-Y(Carboxymethyl)[Phe(4-COOH)]D[Phe(3-Me)]L[Bip]V[NMeA][dL]N[Cha]VSC-NH2; thioether N-14), the IC50 was found to be 0.03 µM. For the compound `CC(C)C[C@@H]1NC(=O)[C@H](CCN)NC(=O)[C@@H](CC(C)C)NC(=O)[C@H](C)N(C)C(=O)[C@H](CCCNC(=N)N)NC(=O)[C@H](Cc2ccc(-c3ccccc3)cc2)NC(=O)[C@H](C(C)C)NC(=O)[C@H](Cc2c[nH]c3ccccc23)NC(=O)[C@H](CC(=O)O)NC(=O)[C@H](Cc2ccc(C#N)cc2)NC(=O)[C@H](CN)NC(=O)CSC[C@@H](C(=O)N[C@@H](C)C(N)=O)NC(=O)[C@H]([C@@H](C)O)NC(=O)[C@H](C(C)C)NC1=O` [Compound 1444] ({CH2CO}-[Dap][Phe(4-CN)]DWV[Bip]R[NMeA][dL][Dab]LVTCA-NH2; thioether N-14), the IC50 worked out at 0.08 µM. The value for `CC(C)C[C@@H]1NC(=O)[C@H](CCN)NC(=O)[C@@H](CC(C)C)NC(=O)[C@H]2CCCN2C(=O)[C@H](C(C)C)NC(=O)[C@H](Cc2ccc(-c3ccccc3)cc2)NC(=O)[C@H](C(C)C)NC(=O)[C@H](Cc2c[nH]c3ccccc23)NC(=O)[C@H](CC(=O)O)NC(=O)[C@H](Cc2ccc(O)cc2)NC(=O)[C@H](CC(N)=O)NC(=O)CSC[C@@H](C(=O)N[C@@H](C)C(N)=O)NC(=O)[C@H]([C@@H](C)O)NC(=O)[C@H](C(C)C)NC1=O` [Compound 1279] ({CH2CO}-NYDWV[Bip]V[dP][dL][Dab]LVTCA-NH2; thioether N-14) was 0.02 µM; that for `CCC(C)[C@@H]1NC(=O)[C@H](Cc2ccc(-c3ccccc3)cc2)NC(=O)[C@H](C(C)C)NC(=O)[C@H](Cc2c[nH]c3ccccc23)NC(=O)[C@H](CC(=O)O)NC(=O)[C@H](Cc2ccc(O)cc2)NC(=O)[C@H](Cc2cccs2)NC(=O)CSC[C@@H](C(=O)N[C@@H](CCCNC(=N)N)C(N)=O)NC(=O)[C@H](C(C)O)NC(=O)[C@H](C(C)(C)O)NC(=O)[C@H](CC2CCCCC2)NC(=O)[C@H](CC(N)=O)NC(=O)[C@@H](CC(C)C)NC(=O)[C@H](C)N(C)C1=O` (stereo partly drawn) [Compound 2172] ({CH2CO}-[2Thi]YDWV[Bip][Ile(3ξ)][NMeA][dL]N[Cha][Val(3-OH)][Thr(3ξ)]CR-NH2; thioether N-14) was 0.08 µM; that for `CC(C)C[C@@H]1NC(=O)[C@H](Cc2c[nH]c3ccccc23)NC(=O)[C@H](CC(=O)O)NC(=O)[C@H](Cc2ccc(C#N)cc2)NC(=O)[C@H](Cc2ccccc2)NC(=O)CSC[C@@H](C(=O)NCC(N)=O)NC(=O)[C@H](CO)NC(=O)[C@H](C(C)C)NC(=O)[C@H](CC(C)C)NC(=O)[C@H](CC(N)=O)NC(=O)[C@@H](CC(C)C)NC(=O)[C@H](C)N(C)C(=O)[C@H](C(C)C)NC(=O)[C@H](Cc2ccc(-c3ccccc3)cc2)NC1=O` [Compound 1525] ({CH2CO}-F[Phe(4-CN)]DWL[Bip]V[NMeA][dL]NLVSCG-NH2; thioether N-14) was 0.03 µM.

For the compound `COc1cccc(C[C@@H]2NC(=O)[C@H](CC(=O)O)NC(=O)[C@H](Cc3ccc(O)cc3)NC(=O)[C@H](Cc3ccccc3)NC(=O)CSC[C@@H](C(=O)N[C@@H](C)C(N)=O)NC(=O)[C@H](CO)NC(=O)[C@H](C(C)C)NC(=O)[C@H](CC(C)C)NC(=O)[C@H](CC(N)=O)NC(=O)[C@@H](C)NC(=O)[C@H](C)N(C)C(=O)[C@H](C(C)C)NC(=O)[C@H](Cc3ccc(-c4ccccc4)cc3)NC(=O)[C@H](CC(C)C)NC2=O)c1` [Compound 1739] ({CH2CO}-FYD[Phe(3-OMe)]L[Bip]V[NMeA][dA]NLVSCA-NH2; thioether N-14), the IC50 is 0.02 µM. `CC(C)C[C@@H]1NC(=O)[C@H](Cc2c[nH]c3ccccc23)NC(=O)[C@H](CC(=O)O)NC(=O)[C@H](Cc2cccs2)NC(=O)[C@H](Cc2ccccc2)NC(=O)CSC[C@@H](C(=O)N[C@@H](C)C(N)=O)NC(=O)[C@H](CO)NC(=O)[C@H](C(C)C)NC(=O)[C@H](CC(C)C)NC(=O)[C@H](CC(N)=O)NC(=O)[C@@H](C)NC(=O)[C@H](C)N(C)C(=O)[C@H](C(C)C)NC(=O)[C@H](Cc2ccc(-c3ccccc3)cc2)NC1=O` [Compound 1725] ({CH2CO}-F[2Thi]DWL[Bip]V[NMeA][dA]NLVSCA-NH2; thioether N-14): the IC50 is 0.01 µM. As to `CC(C)C[C@@H]1NC(=O)[C@H](CCN)NC(=O)[C@@H](CC(C)C)NC(=O)[C@H](CC(C)C)N(C)C(=O)[C@H](C(C)C)NC(=O)[C@H](Cc2ccc(-c3ccccc3)cc2)NC(=O)[C@H](C(C)C)NC(=O)[C@H](Cc2c[nH]c3ccccc23)NC(=O)[C@H](CC(=O)O)NC(=O)[C@H](Cc2ccc(O)cc2)NC(=O)[C@H](CC(N)=O)NC(=O)CSC[C@@H](C(=O)N[C@@H](C)C(N)=O)NC(=O)[C@H]([C@@H](C)O)NC(=O)[C@H](C(C)C)NC1=O` [Compound 1371] ({CH2CO}-NYDWV[Bip]V[NMeL][dL][Dab]LVTCA-NH2; thioether N-14), the IC50 came to 0.03 µM.

The values above are taken from US20240409585A1, “MACROCYCLIC IMMUNOMODULATORS” (priority 2021, published 2024).
